The text below walks through data of US8110399B2, “Stem cells of the islets of langerhans and their use in treating diabetes mellitus” (The General Hospital Corporation, priority 1999, dated 2012).

One assay concerns islet mass. Briefly: Islet mass after injection of GLP-1 into mice. Type of assay: in vivo. To be noted: in 48 hours.
In the next assay the test system is nestin-positive NIPs. Briefly: Intracellular Ca2+ concentration in single isolated NIPs. Type of assay: cell-based, human. The method, then:
The application of GLP-1 amide to single, isolated […] elevates levels of intracellular Ca^2+ concentration ([Ca^2+]i). Cells were plated onto gridded coverslips to permit subsequent immunohistochemical staining of the same cells to test for nestin expression.

In a further assay the test system is NIP cultures. As to the kind of experiment: Immunocytochemical detection of differentiation of NIPs. The format is cell-based, human. To be noted: for Idx-1 immunostaining / insulin immunostaining: NIP cultures expanded 7-10 days, then treated. As to the method: Nestin-positive pancreatic islet stem cells were analyzed for GLP-1R expression. Human islet tissue was obtained from the Juvenile Diabetes Research Center for Islet Transplantation, Harvard Medical School. NIPs were isolated as described previously (Zulewski, et al., 2001, Diabetes 50: 521). Briefly, islets were washed and cultured in RPMI 1640 medium containing serum, 11.1 mM glucose, antibiotics, sodium pyruvate, β-mercaptoethanol, and growth factors. Within several days, nestin-positive cells (identified immunocytochemically as described above) grew out from the islets. Later, these cells were cloned and expanded in medium containing 20 ng/ml of basic fibroblast growth factor and epidermal growth factor or 1000 units of recombinant human leukemia inhibitory factor. Incubation with GLP-1 was administered in the absence of serum and fresh peptide was added every 48 h without changing the medium.
Immunocytochemical detection of GLP-1R was performed using rabbit polyclonal antisera (Heller et al., supra) as follows. Cells cultured on Lab-Tek chamber slides (Nunc, Naperville, Ill.) or gridded coverslips (Bellco Glass, NJ) were fixed with 4% paraformaldehyde in PBS for 10 minutes at room temperature. After several rinses in PBS, cells were blocked with normal donkey serum for 30 minutes and incubated with primary antisera or pre-immune sera at 4° C. The following day, cells were rinsed with PBS and incubated with secondary antisera (donkey anti-rabbit and donkey anti-guinea pig) labeled with Cy-3 or Cy-2 for 1 hour at room temperature. After several washes, coverslips containing cells were mounted onto slides in mounting medium containing DAPI (Vector Laboratories, Burlingame, Calif.) which stains nuclei. Fluorescence images were obtained using a Zeiss epifluorescence microscope equipped with an Optronics TEC-470 CCD camera (Optronics Engineering, Goleta, Calif.) interfaced with a Powermac 7100. IP lab Spectrum software (Signal Analytics, Vienna, Va.) was used to acquire and analyze images.
NIPs were picked from islet cultures and expanded in growth medium containing bFGF plus EGF (passage 01) for 3-10 days (Zulewski et al., 2001 Diabetes 50: 521). In certain instances NIPOs that were expanded for 3-5 days were fixed and subjected to immunocytochemical detection of Nestin (Cy-3) and Insulin (Cy-2) as shown in FIG. 24A. […] Accordingly, treatment with Extendin-4 induced a 2- to 3-fold increase in insulin secretion (FIG. 25). However, in some culture wells, confluence alone was sufficient to initiate small amounts of insulin secretion.

Another assay has as its system diabetic mice. Conditions: cited from earlier work.
Assay [1] relates to partial pancreatectomy rat model of type 2 diabetes. Conditions: daily administration for 10 days post pancreatectomy; cited from earlier work.

Turning to “glucagon-like peptide-1 (HDEFERHAEGTFTSDVSSYLEGQAAKEFIAWLVKGRG) [GLP-1, insulinotropic hormone glucagon-like peptide (GLP)-1 produced by the intestine]”, the “increase of islet mass” value in the assay with islet mass stood at 2 fold. Besides, the “[Ca2+]i levels” value in the assay with nestin-positive NIPs (basal (5.6 mM) glucose) is “stimulates [Ca^2+]i levels”. Besides, the “[Ca2+]i levels” value in the assay on nestin-positive NIPs (high (20 mM) glucose) was “ineffective”. In the assay on NIP cultures, the Idx-1 immunostaining result is recorded as “Idx-1 positive” and the insulin immunostaining result is reported as “a subset of cells became insulin positive”. In addition, the “nestin expression of the cultures” value in the assay with NIP cultures (cultures treated with GLP-1) is “overall decrease in nestin expression”. In the assay on diabetic mice, the blood sugar levels result was “effectively lowers their blood sugar levels” and the insulin secretion result is on record as “stimulates insulin secretion”.
With `CCCCNC(=O)NS(=O)(=O)c1ccc(C)cc1` [tolbutamide], the “[Ca2+]i elevation” value in the assay on nestin-positive NIPs (tolbutamide 100 μM) is “stimulates [Ca^2+]i elevation”.
As for `[La+3]` [La^3+], in the assay with nestin-positive NIPs (extracellular La3+ 5 μM), the “[Ca2+]i increase mediated by GLP-1” value is “inhibited”.
On to exendin-4 [Extendin-4], for which, in the assay with NIP cultures, the Idx-1 immunostaining entry is recorded as “Idx-1 positive” and the insulin immunostaining result is “a subset of cells became insulin positive”. In addition, in assay [1], the development of diabetes result is “attenuated the development of diabetes”.
As for “Extendin (9-39): peptide, a specific antagonist of GLP-1 (GLP-1R antagonist)”, the “increase in [Ca2+]i mediated by GLP-1” value in the assay on nestin-positive NIPs (pretreatment of single isolated NIPs with antagonist) is “prevents the increase”.
